Several values for one entry are separate records, joined by “and”; a condition that tells them apart may be missing. Identical values can stand only once.
How the values were obtained:
wild-type E. coli K12 = test: Oxidative stress assay after preincubation with CoM (cumene hydroperoxide); format: cell-based, Escherichia coli
Excerpt: After having established that E. coli can use CoM as a sulfur source when grown on sulfur-free media, we tested if exogenously supplied CoM could mitigate oxidative stress. […] Protection from oxidative stress remained consistent as the concentration of CuHO2 increased (FIG. 19b). Exponential and logarithmic regression analyses were applied to the lag times of −CoM and +CoM cultures under CuHO2 stress (FIG. 33). These regression curves and their associated equations calculate that the lag time for +CoM E. coli subjected to 65 μM CuHO2 is equivalent to the lag time of −CoM E. coli subjected to ˜50 μM CuHO2.

[1] = test system: E. coli K-12 wild-type and ΔtauD; format: cell-based, Escherichia coli; settings: for growth when plated with 2 mM: 2 mM on plates
Protocol: Uptake of exogenous CoM by E. coli. To determine whether E. coli could catabolize CoM, wild-type (NB506) and ΔtauD (NB510) E. coli K-12 strains were tested for the ability to use CoM, cysteine, and taurine as sole sulfur source on M9 minimal medium lacking sulfur (—S) agar plates after washing to reduce nutrient carryover. E. coli strains were streaked on LB agar (1.5%) plates and used to inoculate 3 mL defined medium (Table 7) then incubated at 35° C. (16 hours, 215 rpm). Cells from 100 μL of each culture was harvested by centrifugation at 5,000×g for 3 minutes. Cells were washed three times and resuspended in 1 mL phosphate buffered saline (137 mM NaCl, 2.7 mM KCl, 10 mM Na2HPO4, 1.8 mM KH2PO4). […] Washed cultures were streaked on each agar plate and incubated at 35° C. for 63 hours before photographing.
We assessed which catabolic pathways could be involved in a hypothetical digestion of CoM by E. coli. […] If this was the case, then the antioxidant effect of CoM may be stronger in the ΔtauD strain when compared to the wild-type strain.

E. coli K-12 ΔtauD [2] = test: Oxidative stress assay after preincubation with CoM (cumene hydroperoxide)
E. coli K-12 ΔtauD [3] = test: Chronic oxidative stress assay (cumene hydroperoxide, 96-well growth); format: cell-based, Escherichia coli; settings: taurine supplied
Protocol: Chronic oxidative stress assay. Cultures were prepared according to the procedure outlined in the Acute Stress Assay method above. Cultures were normalized to 0.1 OD600 and 4.5 mL defined medium was inoculated (1:10) and gently mixed. Cultures (148 μL) were dispensed into each well of a sterile 96-well plate. 2 μL of either H2O or […] CuHO2 was added to designated wells.
Observed increases in the doubling times of com^syn expressing cells are expected as these cultures are being tasked with recombinantly producing enzymes which the vector-only control carrying cells are not (FIG. 8d).
As CoM is a thiol with proposed antioxidant qualities, we tested the ability of operon 3 to protect E. coli from oxidative stress. ΔtauD K-12 E. coli were made kanamycin sensitive through the use of the pCP20 plasmid and given a T7 Polymerase using a λDE3 Lysogenization Kit (Novagen). […] Expression of operon 3 was induced for 2 hours using 100 μM IPTG and cultures were incubated with 100 μM taurine for 70 minutes before being used as inoculum in a 96 well plate with cumene hydroperoxide. Optical density (OD) measurements at 600 nm were taken every 6 minutes for 17.5 hours using a Tecan Microplate Reader. A Kirby-Bauer assay was developed which examined the zone of clearing around sterile absorption disks dosed with 5 μL 2.45M hydrogen peroxide.

E. coli K-12 ΔtauD [4] = test: Acute oxidative stress assay (H2O2 disks, zone of clearing); format: cell-based, Escherichia coli; settings: 0.1 mM taurine
Protocol: Acute oxidative stress assay. E. coli K-12 ΔtauD (NB510) was transformed using pET24a (vector-only control, VOC) or pCH003 (com^syn) to generate strains NB515 and NB525, respectively, and grown on LB agar (1.5%) plates containing 50 μg/mL kanamycin. Cultures were grown in defined medium with kanamycin at 37° C. (10 hours, 215 rpm) then 6 mL defined medium was inoculated (1:100). This culture was incubated until OD600=0.4-0.5 then induced using 0.1 mM IPTG. After another hour of incubation, the cultures were then split into two aliquots of 2.6 mL each, given either 0.1 mM taurine or H2O, and incubated another hour. LB plates containing 0.1 mM IPTG and 0.1 mM taurine were prepared and warmed for 15 minutes at 37° C. Cultures were normalized to 0.1 OD600 and 1 mL of culture was spread on each plate. […] Zones of clearing were measured using the ImageJ program.(38) […]
As CoM is a thiol with proposed antioxidant qualities, we tested the ability of operon 3 to protect E. coli from oxidative stress. ΔtauD K-12 E. coli were made kanamycin sensitive through the use of the pCP20 plasmid and given a T7 Polymerase using a λDE3 Lysogenization Kit (Novagen). […] Optical density (OD) measurements at 600 nm were taken every 6 minutes for 17.5 hours using a Tecan Microplate Reader. […]

[5] = test system: CoM synthesis from pyruvate and taurine; test: CoM biosynthesis assay in E. coli lysate; format: biochemical, Escherichia coli
Protocol: CoM biosynthesis assay. To improve expression of comF, pCH003 was transformed into BL21 E. coli along with pDB1282, graciously provided by Squire J. Booker (Penn State University).(36) This strain was grown in 25 mL defined medium overnight at 37° C. (250 rpm); this was used to inoculate 975 mL defined medium and continued growth at 37° C. (250 rpm). At OD600=0.3 of the culture was supplemented with 2% L-arabinose, 2 mL 1 M cysteine HCl (2 mM), […] iron (II) sulfate (1 mM), and […] ferric ammonium sulfate (1 mM) then returned to incubation. After 1 hour the culture was induced using 0.1 mM IPTG, incubated for 3 hours, pelleted at 8,000×g (10 minutes, 4° C.), and stored at −80° C. until analysis. A portion of the cell pellet was lysed as described above and the presence of ComF and Tpa was confirmed by immunoblotting using a 8-16% polyacrylamide gel with the initial electrophoresis changed to 50 V (25 minutes) followed by 100 V (105 minutes) and transferred using constant 0.11 A (50 minutes). […] Samples were aspirated into a luer slip tip syringe and filtered through a 0.2 μm, 13 mm diameter polyethersulfone (PES) membrane into fresh amber autosampler vials then stored at 4° C. in the dark until analyzed by high-performance liquid chromatography (HPLC) using an UltiMate 3000 (Thermo Scientific, Waltham, MA). […]

O=S(=O)(O)CCS [CoM, 2-mercaptoethanesulfonate]
CuHO2 concentration giving the same lag time in −CoM culture (wild-type E. coli K12; +CoM at 65 μM CuHO2, regression): ~50 µM and 49.73 µM | lag time (wild-type E. coli K12; +CoM, 65 μM CuHO2): 6.0 h | lag time predicted by exponential regression (wild-type E. coli K12; +CoM, 65 μM CuHO2): 6.313 h | CuHO2 mitigated (wild-type E. coli K12; from regression of lag times): ~15 µM | lag time (wild-type E. coli K12; preincubated with 100 μM CoM (+CoM), 75 μM cumene negative control, time to OD600=0.1): 3.0 h | growth when plated with 2 mM [1]: no growth defects | lag time (E. coli K-12 ΔtauD [2]; +CoM, 65 μM CuHO2): 4.7 h | CuHO2 mitigated (E. coli K-12 ΔtauD [2]; comparison of lag times): ~20 µM | lag time (E. coli K-12 ΔtauD [2]; preincubated with CoM, 75 μM cumene): 3.5 h

N[C@@H](CS)C(=O)O [Cys, cysteine]
growth when plated with 2 mM [1]: no growth defects

NCCS(=O)(=O)O [taurine]
lag time of vector-only control cells (E. coli K-12 ΔtauD [3]): lag time increased | lag time of vector-only control cells (E. coli K-12 ΔtauD [3]; listed as SC): increases | zone of clearing of Empty Vector strain (E. coli K-12 ΔtauD [4]): increase in the average zone of clearing size | growth when plated with 2 mM [1]: Inhibitory growth | growth with the substance as sulfur source ([1]; M9 (—S) agar plates, 100 μM): grew poorly

B1: Q9APM5: taurine-pyruvate aminotransferase from Bilophila wadsworthia, SEQ ID NO: 3 (protein, listed as Bilophila wadsworthia)
chain: MTYDKAELVALDKKYVWHHLTQHKNFEPAIYVKGEGMRITDIDGKTYLDAVSGGVWTVNVGYGRKEIVDAVAKQMMEMCYFANGIGNVPTIKFSEKLISKMPGMSRVYLSNSGSEANEKAFKIVRQIGQLKHGGKKTGILYRARDYHGTTIGTLSACGQFERKVQYGPFAPGFYEFPDCDVYRSKFGDCADLGVKMAKQLEEVILTVGPDELGAVIVEPMTAGGGILVPPAGYYETIREICDKYELLLIIDEVVCGLGRTGKWFGYQHFNVQPDIVTMAKGVASGYAPISCTVTTEKVFQDFVNDPADTDAYFRDISTFGGCTSGPAAALANIEIIERENLLENCTKMGDRLLEGLKGLMAKHPIIGDVRGKGLFAGIEIVKDRATKEPIAEAVANAMVGAAKQAGVLIGKTSRSFREFNNTLTLCPALIATEADIDEIVAGIDKAFTTVEQKFGL
catalysis ([5]; enzyme alone): Catalysis was not observed

B2: MA3299: coenzyme M synthase (ComF) of Methanosarcina acetivorans, SEQ ID NO: 1 (protein)
chain: MNGALDNTEKPRTIQEIQVKIDAGEAVVLTAEEIGAKVRAGGEIRLEDIDVVTTATRGIMSGTYAVFSFKVSEPDSFVKASKVLLNGVPAIVGPCPNERLGVLDLIVLGTAHSETDSRYGGGHLFRDMVEGKSITVDVTTSVGDFFSVETRLSEMPFARLYATRHAFKNYRAFVNPGKESIKTIFHALPFEGEFRELTFCGCGELNPIQNDPKLETIGIGTRVLINGAEGFVTGQGTRSAPDNPNLTGFADLHDMTPEYMGGFVTSAGPEIVNTWAVPIPVLSREMLENILQLDSQIPLKLVDLAGRLPLCEITYGDVWDNTDLSVKYEPEKCIDCKICCVAEACPMGAVSKGENGAVHNPELCFNCGLCISRCKGEAFSAKLGTVSCAVGGCFRDIKVTLRQSDRARAVKAAEELKAQVLSGKFRLKEPVEKISWRE
modifications: Methanosarcina acetivorans
reduction of enzymatic activity ([5]; lysate removed from the anaerobic chamber for centrifugation): ~60%
